Reference: patent publication US12037324B2, “Biarylmethyl heterocycles” (Université de Montréal, priority 2016, dated 2024)

Tests used:
[1] = target: T1, AGTR1 (Homo sapiens, UniProt P30556); assay: DiscoveRx β-arrestin2 recruitment assay (enzyme complementation, Pathunter CHO-K1 AGTR1 β-arrestin cell line); type: cell-based; settings: DiscoveRx β-arrestin2 recruitment; for DiscoveRx β-arrestin2 Ymax (%): maximal response
T1 construct: host or cells: Pathunter CHO-K1 AGTR1 β-arrestin cell line (CHO-K1)
T1 sequence (P30556 1-359): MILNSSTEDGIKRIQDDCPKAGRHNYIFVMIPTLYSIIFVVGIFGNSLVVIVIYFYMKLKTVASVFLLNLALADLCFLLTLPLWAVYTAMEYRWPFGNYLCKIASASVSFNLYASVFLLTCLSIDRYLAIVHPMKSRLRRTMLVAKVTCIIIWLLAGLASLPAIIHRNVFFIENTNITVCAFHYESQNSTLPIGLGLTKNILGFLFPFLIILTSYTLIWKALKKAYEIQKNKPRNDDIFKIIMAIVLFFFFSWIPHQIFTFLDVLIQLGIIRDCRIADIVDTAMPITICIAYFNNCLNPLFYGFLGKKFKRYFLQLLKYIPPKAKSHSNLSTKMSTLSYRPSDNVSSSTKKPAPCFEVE
Procedure, shortened: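 Chemiluminescent enzyme-complementation read-out of β-arrestin2 recruitment to AGTR1 in engineered CHO-K1 cells after 90 min compound exposure at 37° C. Values are 4-parameter logistic EC50s in agonist mode, IC50s in antagonist mode, with efficacy relative to the maximal All response.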

[2] = target: T1, AGTR1; assay: DiscoveRx IP1 accumulation assay (HTRF), agonist mode, Pathunter CHO-K1 AGTR1 β-arrestin cell line; type: cell-based; settings: for EC50: read-out: IP-1 EC50
Procedure, shortened: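 Agonist mode in CHO-K1 AGTR1 β-arrestin cells plated 14-16 h before; compounds at varying concentrations for 90 min at 37° C, IP1 accumulation read by HTRF (D2-conjugate and anti-IP1 cryptate, 20 min room temperature). EC50 from 4-parameter logistic fit; activity given as percentage of maximal AII effect.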

[3] = target: T2, hAT1R (Homo sapiens, UniProt P30556); assay: cell-based
T2 sequence (P30556 1-359): T1 sequence (P30556 1-359)

[4] = target: T2, hAT1R; assay: cell-based; settings: agonist mode; for EC50: read-out: BRET P63 EC50
[5] = target: T2, hAT1R; assay: BRET β-arrestin2 biosensor assay, higher receptor expression (hAT1R 5 ng/well), HEK293 cells; type: cell-based; settings: for EC50: High AT1R Expression
[6] = section of the 42nd table ending at r951, example numbering restarts after the DiscoveRx section, read-out: β-arrestin2 EC50
[7] = Low AT1R Expression, read-out: BRET β-Arrestin2 Low AT1R Expression EC50

Structure (SMILES) | EC50 [3, 6] [nM] | BRET P63 Ymax [4] [%] | EC50 [4] [nM] | other results
CCc1nc2c(C)cc(C)nc2n1Cc1ccc(-c2cc(-c3cn(C)nn3)ccc2-c2nnn[nH]2)cc1 [Example 243, 2-Ethyl-5,7-dimethyl-3-((5′-(1-methyl-1H-1,2,3-triazol-4-yl)-2′-(1H-tetrazol-5-yl)-[1,1′-biphenyl]-4-yl)methyl)-3H-imidazo[4,5-b]pyridine] | 71.5 | 15.2 | 42.1 | EC50 [1]: 22.4 nM; DiscoveRx β-arrestin2 Ymax (%) [1]: 37.7%; IP-1 Ymax (%) [2]: 14.7%; EC50 [2]: 52 nM
CCc1nc2c(C)cc(C)nc2n1Cc1ccc(-c2cc(-n3cnc(C)c3)ccc2-c2nnn[nH]2)cc1 [Example 221] | 159 | 5.4 | 28 | –
CCc1nc2c(C)cc(C)nc2n1Cc1ccc(-c2cc(-c3cc(C)ccn3)ccc2C(=O)O)cc1 [Example 193] | 133 | 29.3 | 160 | EC50 [1]: 52.2 nM; DiscoveRx β-arrestin2 Ymax (%) [1]: 60.7%; IP-1 Ymax (%) [2]: 25.0%; EC50 [2]: 132 nM
CCOc1nc2cccc(C(=O)O)c2n1Cc1ccc(-c2cc(-n3cc4ccccc4n3)ccc2-c2nn[nH]n2)cc1 [Example 341] | 12.2 | 18.8 | 4.4 | –
CCOc1nc2cccc(C(=O)O)c2n1Cc1ccc(-c2cc(-n3ncc4ccccc43)ccc2-c2nn[nH]n2)cc1 [Example 342] | 3.6 | 16.5 | 3.3 | –
CCc1nc2c(C)cc(C)nc2n1Cc1ccc(-c2cc(N3CCC4(CCOC4)C3)ccc2-c2nn[nH]n2)cc1 (centres unmarked) [Example 92] | – | 17.8 | 278 | IP-1 Ymax (%) [2]: 51.1%; EC50 [2]: 1400 nM; BRET β-Arrestin2 Low AT1R Expression Ymax (%) ([3]; Low AT1R Expression): 66.5%; EC50 [3, 7]: 309 nM
CCCCC1=NC2(CCCC2)C(=O)N1Cc1ccc(-c2cc(-c3cccc(F)c3)ccc2-c2nn[nH]n2)cc1 [Example 127] | – | – | > 10000 | BRET β-Arrestin2 High AT1R Expression Ymax (%) [5]: 82.7%; EC50 [5]: 23.6 nM; BRET β-Arrestin2 Low AT1R Expression Ymax (%) ([3]; Low AT1R Expression): 29.5%; EC50 [3, 7]: 17.3 nM
CCOc1nc2cccc(C(=O)O)c2n1Cc1ccc(-c2cc(-c3ccc(C)cn3)ccc2-c2noc(=O)[nH]2)cc1 [Example 300, 2-ethoxy-1-((5′-(5-methylpyridin-2-yl)-2′-(5-oxo-4,5-dihydro-1,2,4-oxadiazol-3-yl)-[1,1′-biphenyl]-4-yl)methyl)-1H-benzo[d]imidazole-7-carboxylic acid] | 12.8 | 25.1 | 9 | –
CCOc1nc2cccc(C(=O)O)c2n1Cc1ccc(-c2cc(-c3cc(OC)ccn3)ccc2-c2noc(=O)[nH]2)cc1 [Example 301] | 14.8 | 31.2 | 13.6 | –
CCCCc1nc(Cl)c(C(=O)O)n1Cc1ccc(-c2cc(Oc3cccnc3)ccc2-c2nn[nH]n2)cc1 [Example 428] | 122 | – | > 10000 | –
CCOc1nc2cccc(C(=O)O)c2n1Cc1ccc(-c2cc(OC3CCCCC3)ccc2-c2nn[nH]n2)cc1 [Example 343] | 26.2 | 15.3 | 26.7 | –
CCOc1nc2cccc(C(=O)O)c2n1Cc1ccc(-c2cc(N3CCC[C@@H](C)C3)ccc2-c2noc(=O)[nH]2)cc1 [Example 325] | 201 | – | > 10000 | –
CC1=NC2(CCOC2)C(=O)N1Cc1ccc(-c2cc(-c3ccccc3)ccc2-c2nn[nH]n2)cc1 (single isomer, unassigned) [Example 174, 3-((6′-(2H-tetrazol-5-yl)-[1,1′:3′,1″-terphenyl]-4-yl)methyl)-2-methyl-7-oxa-1,3-diazaspiro[4.4]non-1-en-4-one] | 634 | 10.3 | 770 | –
CC1=NC2(CCOCC2)C(=O)N1Cc1ccc(-c2cc(-c3cc(C)ccn3)ccc2-c2nn[nH]n2)cc1 [Example 173, 2-methyl-3-((5′-(4-methylpyridin-2-yl)-2′-(2H-tetrazol-5-yl)-[1,1′-biphenyl]-4-yl)methyl)-8-oxa-1,3-diazaspiro[4.5]dec-1-en-4-one] | 80.4 | 19.3 | 79.1 | –
CCc1nc2c(C)cc(C)nc2n1Cc1ccc(-c2cc(-n3cc(C(F)(F)F)cn3)ccc2-c2nnn[nH]2)cc1 [Example 224] | 7.6 | 20.8 | 11.3 | –
CCc1nc2c(C)cc(C)nc2n1Cc1ccc(-c2cc(-c3cn(CC(F)F)nn3)ccc2-c2nnn[nH]2)cc1 [Example 242] | 28.2 | 45.6 | 41.6 | –
CCc1nc2c(C)cc(C)nc2n1Cc1ccc(-c2cc(-n3cncc3C)ccc2-c2nnn[nH]2)cc1 [Example 220] | 36 | 18.2 | 36.8 | –
CCOc1nc2cccc(C(=O)O)c2n1Cc1ccc(-c2cc(-c3cnccn3)ccc2-c2noc(=O)[nH]2)cc1 [Example 307] | 962 | – | > 10000 | –
CCc1nc2c(C)cc(C)nc2n1Cc1ccc(-c2cc(Oc3cccc(F)n3)ccc2-c2nn[nH]n2)cc1 [Example 256] | 34.5 | 30.5 | 43 | –
CCOc1nc2cccc(C(=O)O)c2n1Cc1ccc(-c2cc(-c3cccc(C)n3)ccc2-c2noc(=O)[nH]2)cc1 [Example 304] | 38.3 | 17.3 | 29.7 | –
CCOc1nc2cccc(C(=O)O)c2n1Cc1ccc(-c2cc(-n3cc(C(C)C)nn3)ccc2-c2nn[nH]n2)cc1 [Example 344] | 767 | 10.4 | 16.8 | –
CCOc1nc2cccc(C(=O)O)c2n1Cc1ccc(-c2cc(-n3cc(C)cn3)ccc2-c2nn[nH]n2)cc1 [Example 340] | 5.8 | 17.3 | 2.9 | –
CCc1nc2c(C)cc(C)nc2n1Cc1ccc(-c2cc(Oc3cccnc3)ccc2-c2noc(=O)[nH]2)cc1 [Example 259] | 38.8 | – | – | EC50 [1]: 12.9 nM; DiscoveRx β-arrestin2 Ymax (%) [1]: 80.6%; IP-1 Ymax (%) [2]: 9.9%; EC50 [2]: 21.1 nM; BRET β-Arrestin2 High AT1R Expression Ymax (%) [5]: 83.2%; EC50 [5]: 6.9 nM
CCCCC1=NC2(CCOC2)C(=O)N1Cc1ccc(-c2cc(-c3ccccc3F)ccc2-c2nnn[nH]2)cc1 (single isomer, unassigned) [Example 149] | – | – | – | EC50 [1]: 38.9 nM; DiscoveRx β-arrestin2 Ymax (%) [1]: 55.2%; IP-1 Ymax (%) [2]: 7.5%; EC50 [2]: 143 nM; BRET β-Arrestin2 High AT1R Expression Ymax (%) [5]: 85.7%; EC50 [5]: 24.1 nM; BRET β-Arrestin2 Low AT1R Expression Ymax (%) ([3]; Low AT1R Expression): 42.1%; EC50 [3, 7]: 82.7 nM
CCc1nc2c(C)cc(C)nc2n1Cc1ccc(-c2cc(-c3ncc(C)s3)ccc2-c2nn[nH]n2)cc1 [Example 68] | – | 41.7 | 15 | BRET β-Arrestin2 Low AT1R Expression Ymax (%) ([3]; Low AT1R Expression): 91.1%; EC50 [3, 7]: 15.3 nM
CCc1nc2c(C)cc(C)nc2n1Cc1ccc(-c2cc(-n3cc(C)c(C)n3)ccc2-c2nnn[nH]2)cc1 [Example 223] | 9.2 | 9.8 | 5.9 | –
